Test results reported in ChEMBL document CHEMBL1201862, “PubChem BioAssay data set” (2004).
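In this assay, cells in 96-well plates receive the compound at five concentrations for 48 hours. Endpoints are linearly interpolated between the surrounding concentrations. GI50 is the concentration that inhibits growth by half.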 Active and inactive are the calls of the source. Cut-off read from the data, not from the text of the source: active = GI50 up to about 1.1 µM and inactive = higher.

Key:
Test in all cases: inhibition of tumour cell growth, NCI panel, 48 h
[1] = tested on: U-251
[2] = tested on: LOX IMVI
[3] = tested on: UACC-257
[4] = tested on: UO-31
[5] = tested on: HCT-15
[6] = tested on: SK-MEL-28
[7] = tested on: HOP-62
[8] = tested on: MDA-N
[9] = tested on: HL-60
[10] = tested on: PC-3
[11] = tested on: NCI/ADR-RES
[12] = tested on: MDA-MB-435
[13] = tested on: BT-549
[14] = tested on: M14
[15] = tested on: IGROV-1
[16] = tested on: RPMI-8226
[17] = tested on: OVCAR-5
[18] = tested on: CCRF-CEM
[19] = tested on: CAKI-1
[20] = tested on: EKVX

| Structure (SMILES) | GI50 [1] | GI50 [2] | GI50 [3] | GI50 [4] | GI50 [5] | GI50 [6] | GI50 [7] | GI50 [8] | GI50 [9] | GI50 [10] | GI50 [11] | GI50 [12] | GI50 [13] | GI50 [14] | GI50 [15] | GI50 [16] | GI50 [17] | GI50 [18] | GI50 [19] | GI50 [20] |
| --- | --- | --- | --- | --- | --- | --- | --- | --- | --- | --- | --- | --- | --- | --- | --- | --- | --- | --- | --- | --- |
| NNS(=O)(=O)c1ccc(/C=C2\NC(=O)NC2=O)cc1 | > 100 µM (inactive) | > 100 µM (inactive) | > 100 µM (inactive) | > 100 µM (inactive) | > 100 µM | > 100 µM (inactive) | > 100 µM (inactive) | > 100 µM (inactive) | > 100 µM (inactive) | > 100 µM (inactive) | > 100 µM (inactive) | > 100 µM (inactive) | > 100 µM (inactive) | > 100 µM (inactive) | > 100 µM (inactive) | > 100 µM (inactive) | 58.1 µM (inactive) | > 100 µM (inactive) | > 100 µM (inactive) | > 100 µM (inactive) |
| NC1=NC2(COC(c3ccccc3)(c3ccccc3)c3ccccc3)OC(COC(c3ccccc3)(c3ccccc3)c3ccccc3)C(O)C2O1 (stereo not given) | > 100 µM (inactive) | > 100 µM (inactive) | 51.2 µM (inactive) | 13.4 µM (inactive) | > 100 µM | > 100 µM (inactive) | > 100 µM (inactive) | 85.1 µM (inactive) | 8.59 µM (inactive) | 11.2 µM (inactive) | 21.1 µM (inactive) | 65.8 µM (inactive) | 41.3 µM (inactive) | > 100 µM (inactive) | 21.8 µM (inactive) | 16.6 µM (inactive) | 81.7 µM (inactive) | 21.3 µM (inactive) | > 100 µM (inactive) | 16.4 µM (inactive) |
| CSc1nc(=O)c2nc(-c3cccs3)c(-c3cccs3)nc2n1C | 28.2 µM (inactive) | 57.5 µM (inactive) | > 100 µM (inactive) | 33.7 µM (inactive) | > 100 µM | 43.1 µM (inactive) | 20 µM (inactive) | > 100 µM (inactive) | 96.6 µM (inactive) | 40.9 µM (inactive) | 50.2 µM (inactive) | > 100 µM (inactive) | 34.5 µM (inactive) | > 100 µM (inactive) | 43.5 µM (inactive) | > 100 µM (inactive) | 75.3 µM (inactive) | > 100 µM (inactive) | 39.6 µM (inactive) | 27.6 µM (inactive) |
| OC[C@H](O)[C@@H](OCc1ccccc1)[C@H](NCc1ccccc1)c1cccs1 | > 100 µM (inactive) | > 100 µM (inactive) | > 100 µM (inactive) | 15.5 µM (inactive) | > 100 µM | > 100 µM (inactive) | > 100 µM (inactive) | > 100 µM (inactive) | > 100 µM (inactive) | 98.4 µM (inactive) | > 100 µM (inactive) | > 100 µM (inactive) | > 100 µM (inactive) | > 100 µM (inactive) | 75.5 µM (inactive) | 92 µM (inactive) | > 100 µM (inactive) | > 100 µM (inactive) | > 100 µM (inactive) | > 100 µM (inactive) |
| CCCC(=O)OCC1OC(n2cc(F)c(=O)[nH]c2=O)CC1OC(=O)CCC (stereo not given) | 3.26 µM (inactive) | 0.0236 µM (active) | 3.79 µM (inactive) | 0.13 µM (active) | > 4.41 µM | > 6.68 µM (inactive) | 0.0684 µM (active) | 1.25 µM (inactive) | 0.247 µM (active) | 1.55 µM (inactive) | 1.55 µM (inactive) | 3.95 µM (inactive) | 0.376 µM (active) | 0.312 µM (active) | > 10 µM (inactive) | 0.973 µM (active) | > 10 µM (inactive) | 0.0295 µM (active) | 0.183 µM (active) | > 10 µM (inactive) |
| Cn1c2ccccc2n2c(N=O)c(-c3ccccc3)nc12 | 49.8 µM (inactive) | > 100 µM (inactive) | 34.3 µM (inactive) | 32.5 µM (inactive) | 20.1 µM | > 100 µM (inactive) | 5.52 µM (inactive) | 55.1 µM (inactive) | 92.3 µM (inactive) | 96.6 µM (inactive) | 18.4 µM (inactive) | 38.8 µM (inactive) | 27.6 µM (inactive) | 19.6 µM (inactive) | 25.5 µM (inactive) | 90.8 µM (inactive) | 59.3 µM (inactive) | 30.5 µM (inactive) | 39.7 µM (inactive) | 19.4 µM (inactive) |
